{"source": "paper PMC10401666", "about": "(RSC Advances, 2023)", "key": {"MCF-7 cells [1]": {"system": "MCF-7 cells", "assay": "Cell cycle analysis by flow cytometry", "assay_type": "cell-based, human", "conditions": "MCF-7, 10.17 μM, 72 h"}, "HepG2": {"system": "HepG2", "assay": "MTT anti-proliferative assay, HepG2", "assay_type": "cell-based, human", "conditions": "mean of three experiments"}, "BAX": {"system": "BAX", "assay": "BAX level in MCF-7 cells", "assay_type": "cell-based, human", "conditions": "MCF-7, 10.17 μM"}, "caspase-9": {"system": "caspase-9", "assay": "Caspase-9 level in MCF-7 cells", "assay_type": "cell-based, human", "conditions": "MCF-7, 10.17 μM"}, "caspase-8": {"system": "caspase-8", "assay": "Caspase-8 level in MCF-7 cells", "assay_type": "cell-based, human", "conditions": "MCF-7, 10.17 μM"}, "IL6": {"system": "IL6", "assay": "IL6 level in MCF-7 cells", "assay_type": "cell-based, human"}, "Bcl-2": {"system": "Bcl-2", "assay": "Bcl-2 level in MCF-7 cells", "assay_type": "cell-based, human", "conditions": "MCF-7, 10.17 μM"}, "MCF-7 cells [2]": {"system": "MCF-7 cells", "assay": "Apoptosis assay, annexin V / PI flow cytometry", "assay_type": "cell-based, human", "conditions": "MCF-7, 10.17 μM, 72 h"}, "MCF-7": {"system": "MCF-7", "assay": "MTT anti-proliferative assay, MCF-7", "assay_type": "cell-based", "conditions": "Homo sapiens, MCF7, read-out: IC50 MCF-7"}, "TNF-α": {"system": "TNF-α", "assay": "TNF-α level in MCF-7 cells", "assay_type": "cell-based, human"}, "VEGFR-2": {"target": "VEGFR-2 (Homo sapiens, UniProt P35968)", "sequence (P35968 20-1356)": "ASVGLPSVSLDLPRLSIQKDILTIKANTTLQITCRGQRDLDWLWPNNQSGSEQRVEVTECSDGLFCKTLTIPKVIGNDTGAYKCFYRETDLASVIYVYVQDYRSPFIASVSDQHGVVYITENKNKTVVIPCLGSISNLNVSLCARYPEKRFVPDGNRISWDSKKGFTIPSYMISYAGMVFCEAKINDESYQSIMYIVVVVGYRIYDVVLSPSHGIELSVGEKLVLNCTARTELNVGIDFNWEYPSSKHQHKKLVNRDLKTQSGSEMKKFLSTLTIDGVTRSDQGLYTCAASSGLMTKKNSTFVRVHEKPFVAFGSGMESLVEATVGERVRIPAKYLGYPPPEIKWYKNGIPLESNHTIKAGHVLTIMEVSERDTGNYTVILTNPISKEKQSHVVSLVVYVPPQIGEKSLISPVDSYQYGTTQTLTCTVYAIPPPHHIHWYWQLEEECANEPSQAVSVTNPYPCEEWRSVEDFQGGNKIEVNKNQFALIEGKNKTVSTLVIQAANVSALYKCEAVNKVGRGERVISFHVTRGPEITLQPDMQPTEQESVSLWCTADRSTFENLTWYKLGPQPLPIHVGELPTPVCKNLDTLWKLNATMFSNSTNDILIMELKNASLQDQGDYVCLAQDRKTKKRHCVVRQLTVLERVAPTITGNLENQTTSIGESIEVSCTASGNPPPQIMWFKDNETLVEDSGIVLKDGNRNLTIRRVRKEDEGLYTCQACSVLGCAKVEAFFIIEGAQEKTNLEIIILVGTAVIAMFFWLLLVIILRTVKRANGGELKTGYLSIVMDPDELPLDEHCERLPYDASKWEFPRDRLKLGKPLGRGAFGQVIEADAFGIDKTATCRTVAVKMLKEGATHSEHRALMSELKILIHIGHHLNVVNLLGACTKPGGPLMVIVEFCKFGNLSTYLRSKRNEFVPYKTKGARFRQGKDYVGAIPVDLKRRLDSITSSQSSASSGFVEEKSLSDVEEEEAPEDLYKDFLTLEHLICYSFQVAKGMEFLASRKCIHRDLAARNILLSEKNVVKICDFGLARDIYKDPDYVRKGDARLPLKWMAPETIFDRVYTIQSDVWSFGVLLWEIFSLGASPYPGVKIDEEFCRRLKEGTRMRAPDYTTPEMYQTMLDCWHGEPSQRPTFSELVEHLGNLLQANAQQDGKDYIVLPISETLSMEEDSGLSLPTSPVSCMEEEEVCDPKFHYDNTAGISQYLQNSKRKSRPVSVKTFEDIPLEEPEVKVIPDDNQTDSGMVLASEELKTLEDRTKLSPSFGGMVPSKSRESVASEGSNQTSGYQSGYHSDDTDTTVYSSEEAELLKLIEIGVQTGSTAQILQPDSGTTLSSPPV", "assay": "biochemical"}, "[3]": {"conditions": "Homo sapiens, HepG2, read-out: IC50 HepG2, MTT assay"}}, "note": "Where two headings read alike, the source gives them in different places."}
{"smiles": "O=C(CSc1nnc(Cn2cnc3sc4c(c3c2=O)CCCC4)o1)N1CCCCC1", "note": "[Compound 18, 3-((5-((2-Oxo-2-(piperidin-1-yl)ethyl)thio)-1,3,4-oxadiazol-2-yl)methyl)-5,6,7,8-tetrahydrobenzo[4,5]thieno[2,3-d]pyrimidin-4(3H)-one]", "values": [{"measurement": "Cell cycle distribution (%) % G2/M", "setting": "MCF-7 cells [1]", "value": 15.4, "unit": "%"}, {"measurement": "Cell cycle distribution (%) %G0–G1", "setting": "MCF-7 cells [1]", "value": 56.46, "unit": "%"}, {"measurement": "Cell cycle distribution (%) %S", "setting": "MCF-7 cells [1]", "value": 28.14, "unit": "%"}, {"measurement": "IC50", "setting": "HepG2; [3]", "value": 24.5, "unit": "µM"}, {"measurement": "IC50", "setting": "HepG2; read-out: IC50 HepG2, MTT assay", "value": "24.3 ± 2.08", "unit": "µM"}, {"measurement": "BAX level increase vs control", "setting": "BAX", "value": 3.6, "unit": "fold"}, {"measurement": "Protein expression BAX", "setting": "BAX; control = 1", "value": 3.669}, {"measurement": "Caspase-9 level increase vs control", "setting": "caspase-9", "value": 5.4, "unit": "fold"}, {"measurement": "Protein expression Caspase-9", "setting": "caspase-9; control = 1", "value": 5.422}, {"measurement": "Caspase-8 level increase vs control", "setting": "caspase-8", "value": 2.6, "unit": "fold"}, {"measurement": "Protein expression Caspase-8", "setting": "caspase-8; control = 1", "value": 2.607}, {"measurement": "IL6 level lower than control", "setting": "IL6", "value": 2.5, "unit": "times"}, {"measurement": "IL6 level", "setting": "IL6; control = 1", "value": 0.393}, {"measurement": "Bcl-2 level decrease vs control", "setting": "Bcl-2", "value": 3.1, "unit": "fold"}, {"measurement": "Protein expression Bcl-2", "setting": "Bcl-2; control = 1", "value": 0.315}, {"measurement": "Apoptosis induced (early + late)", "setting": "MCF-7 cells [2]", "value": 23.35, "unit": "%"}, {"measurement": "Early apoptosis", "setting": "MCF-7 cells [2]", "value": 15.96, "unit": "%"}, {"measurement": "Late apoptosis", "setting": "MCF-7 cells [2]", "value": 7.39, "unit": "%"}, {"measurement": "Necrosis", "setting": "MCF-7 cells [2]", "value": 2.41}, {"measurement": "Total (cell death)", "setting": "MCF-7 cells [2]", "value": 25.76}, {"measurement": "IC50", "setting": "MCF-7", "value": "10.2 ± 1.01", "unit": "µM"}, {"measurement": "TNF-α level lower than control", "setting": "TNF-α", "value": 2.9, "unit": "times"}, {"measurement": "TNF-α level", "setting": "TNF-α; control = 1", "value": 0.335}]}
{"smiles": "O=C(CSc1nnc(Cn2cnc3sc4c(c3c2=O)CCCC4)o1)Nc1ccc(Cl)cn1", "note": "[Compound 20, N-(5-Chloropyridin-2-yl)-2-((5-((4-oxo-5,6,7,8-tetrahydrobenzo[4,5]thieno[2,3-d]pyrimidin-3(4H)-yl)methyl)-1,3,4-oxadiazol-2-yl)thio)acetamide]", "values": [{"measurement": "IC50", "setting": "HepG2; [3]", "value": "4.84 ± 0.38", "unit": "µM"}, {"measurement": "IC50", "setting": "MCF-7", "value": "5.38 ± 0.45", "unit": "µM"}]}
{"smiles": "O=C(CSc1nnc(Cn2cnc3sc4c(c3c2=O)CCCC4)o1)Nc1nc2ccccc2s1", "note": "[Compound 22, N-(Benzo[d]thiazol-2-yl)-2-((5-((4-oxo-5,6,7,8-tetrahydrobenzo[4,5]thieno[2,3-d]pyrimidin-3(4H)-yl)methyl)-1,3,4-oxadiazol-2-yl)thio)acetamide]", "values": [{"measurement": "IC50", "setting": "HepG2; [3]", "value": "5.51 ± 0.25", "unit": "µM"}, {"measurement": "IC50", "setting": "MCF-7", "value": "5.73 ± 0.18", "unit": "µM"}]}
{"smiles": "CNC(=O)c1cc(Oc2ccc(NC(=O)Nc3ccc(Cl)c(C(F)(F)F)c3)cc2)ccn1", "note": "[Sorafenib, reference compound]", "values": [{"measurement": "IC50", "setting": "HepG2; [3]", "value": "13.3 ± 0.3", "unit": "µM"}, {"measurement": "IC50", "setting": "MCF-7", "value": "9.98 ± 0.6", "unit": "µM"}]}
{"smiles": "O=C(CSc1nnc(Cn2cnc3sc4c(c3c2=O)CCCC4)o1)Nc1nccs1", "note": "[Compound 21, 2-((5-((4-Oxo-5,6,7,8-tetrahydrobenzo[4,5]thieno[2,3-d]pyrimidin-3(4H)-yl)methyl)-1,3,4-oxadiazol-2-yl)thio)-N-(thiazol-2-yl)acetamide]", "values": [{"measurement": "IC50", "setting": "HepG2; [3]", "value": "11.8 ± 1.05", "unit": "µM"}, {"measurement": "IC50", "setting": "VEGFR-2", "value": "0.42 ± 0.008", "unit": "µM"}, {"measurement": "IC50", "setting": "MCF-7", "value": "6.31 ± 0.16", "unit": "µM"}]}
{"smiles": "O=C(CSc1nnc(Cn2cnc3sc4c(c3c2=O)CCCC4)o1)Nc1c([N+](=O)[O-])cccc1[N+](=O)[O-]", "note": "[Compound 19, N-(2,6-Dinitrophenyl)-2-((5-((4-oxo-5,6,7,8-tetrahydrobenzo[4,5]thieno[2,3-d]pyrimidin-3(4H)-yl)methyl)-1,3,4-oxadiazol-2-yl)thio)acetamide]", "values": [{"measurement": "IC50", "setting": "HepG2; [3]", "value": "31.8 ± 1.15", "unit": "µM"}, {"measurement": "IC50", "setting": "VEGFR-2", "value": "0.29 ± 0.007", "unit": "µM"}, {"measurement": "IC50", "setting": "MCF-7", "value": "16.5 ± 1.16", "unit": "µM"}]}
